Assays:
[1] = tested on: T1, GEII nanosensor (ECFP-LivJ-Venus); experiment: Specificity analysis of purified GEII nanosensor with amino acids and metal ions (Venus/ECFP FRET ratio, microplate); type: biochemical, E. coli; settings: 1 and 10 mM amino acid, purified sensor
T1 construct: His-tag (from pRSET-B); made in house; host or cells: E. coli BL21 (DE3)
Description: The FRET ratio analysis was performed in 96-well microplate reader using the excitation filter/slits (430/20 nm) and emission filters/slits for ECFP (485/20 nm), and Venus (535/25 nm) respectively. Furthermore, the sensitivity of sensor protein was tested against 10 mM of different metals ions present in the human body i.e., NaCl, CaCl2, MgCl2, and KCl.

E. coli BL21(DE3) cells = experiment: Monitoring of isoleucine in living bacterial cells expressing GEII; type: cell-based; settings: 10 mM amino acid, 45 min
Description: For monitoring of isoleucine in bacterial cells, the E. coli BL21(DE3) containing pRSET-B-GEII were incubated for 48 h at 21 °C. For appropriate protein folding of nanosensor protein, the culture was stored in 4 °C overnight. The bacterial cells were centrifuged and the resultant pellet of the bacterial cells was resuspended in MOPS buffer (20 mM). Twenty microliter 10 mM isoleucine was added to 180 µL resuspended bacterial cell in the wells of microplate. The ratio of fluorescence emission intensities of Venus/ECFP was recorded for 45 min.

LivJ = LivJ binding protein; no reference given; cited from earlier work

| SMILES | change in FRET ratio of GEII with amino acid [1] | FRET ratio change of GEII in E. coli cells (E. coli BL21(DE3) cells) | Kd (LivJ) |
| --- | --- | --- | --- |
| C[C@H](N)C(=O)O [Alanine] | minimal |  |  |
| N[C@@H](CS)C(=O)O [Cysteine] | minimal |  |  |
| N[C@@H](CCC(=O)O)C(=O)O [Glutamate] | minimal |  |  |
| CC[C@H](C)[C@H](N)C(=O)O [Isoleucine] | maximum | maximum FRET ratio change | 900 nM |
| CC(C)C[C@H](N)C(=O)O [Leucine] | only mildly |  | 2300 nM |
| CSCC[C@H](N)C(=O)O [Methionine] | minimal |  |  |
| N[C@@H](CO)C(=O)O [Serine] | minimal |  |  |
| CC(C)[C@H](N)C(=O)O [Valine] | minimal |  | 4000 nM |
| N=C(N)NCCC[C@H](N)C(=O)O [arginine] | minimal |  |  |
| NC(=O)C[C@H](N)C(=O)O [asparagine] | minimal |  |  |
| N[C@@H](CC(=O)O)C(=O)O [aspartic acid] | minimal |  |  |
| NC(=O)CC[C@H](N)C(=O)O [glutamine] | minimal |  |  |
| NCC(=O)O [glycine] | minimal |  |  |
| N[C@@H](Cc1c[nH]cn1)C(=O)O [histidine] | minimal |  |  |
| NCCCC[C@H](N)C(=O)O [lysine] | minimal |  |  |

Source: PMC6983066, “Real-Time Optical Detection of Isoleucine in Living Cells through a Genetically-Encoded Nanosensor” (Sensors (Basel, Switzerland), 2019)
